Measured values published in ChEMBL document CHEMBL1146465, “Three new oleanane-type triterpenes from Ludwigia octovalvis with cytotoxic activity against two human cancer cell lines” (J Nat Prod, 2004).

Key:
[1] = system: KB; assay: Cytotoxicity against human KB cells after 72 hrs by methylene blue assay; format: functional, cell-based
[2] = system: HT-29; assay: Cytotoxicity against human HT-29 cells after 72 hrs by methylene blue assay; format: functional, cell-based; conditions: HT-29, 72 h

Row | Structure (SMILES) | IC50 [1] [µM] | IC50 [2] [µM]
1 | CC1(C)CC[C@]2(C(=O)O)CC[C@]3(C)C(=CC[C@@H]4[C@@]5(C)CC[C@H](OC(=O)/C=C\c6ccc(O)cc6)[C@@](C)(CO)[C@@H]5CC[C@]43C)[C@@H]2C1 | 1.2 | 2.1
2 | CC1(C)CC[C@]2(C(=O)O)CC[C@]3(C)C(=CC[C@@H]4[C@@]5(C)CC[C@H](O)[C@@](C)(COC(=O)/C=C\c6ccc(O)cc6)[C@@H]5CC[C@]43C)[C@@H]2C1 | 1.6 | 3.6
3 | CC1(C)CC[C@]2(C(=O)O)CC[C@]3(C)C(=CC[C@@H]4[C@@]5(C)CC[C@H](O)[C@@](C)(COC(=O)/C=C/c6ccc(O)cc6)[C@@H]5CC[C@]43C)[C@@H]2C1 | 1.3 | 2.4
4 | COc1cc([C@@H]2c3cc4c(cc3[C@@H](O[C@@H]3O[C@@H]5CO[C@@H](C)O[C@H]5[C@H](O)[C@H]3O)[C@H]3COC(=O)[C@H]23)OCO4)cc(OC)c1O [ETOPOSIDE] | 1.1 | 2.3
